These molecules were tested on osteoclast differentiation (assay: Inhibitory effects on osteoclast differentiation (co-culture of bone marrow cells with osteoblast, TRAP staining)). Settings: Mus musculus, Osteoclast, 168 h, read-out: % inhibitory activity on osteoclastogenesis.
Format: cell-based, mice
Procedure: The effect of benzamidine derivatives of the present invention on osteoclast proliferation and differentiation process was evaluated via co-culture with osteoblast.
Tibia and Femora were aseptically ectomized from male ddY mice of 6-8 weeks to harvest bone marrow cells by using a syringe (21G, Korea Green Cross).
The bone marrow cells were suspended in 5 mL α-MEM medium (Gibco BRL Co.) containing sodium bicarbonate (2.0 g/L), streptomycin (100 mg/L) and penicillin ([…]). The harvested cells were centrifuged at 600×g for 5 mins to collect the whole quantity. To remove the red blood cells within bone marrow cells, 3 mL of Tris HCl (0.83% NH4Cl, pH7.5) was added and well mixed. After centrifuging above cells, the numbers of bone marrow cells were counted and then, the bone marrow cells were immediately used for co-culture system with osteoblast.
The calvaria were aseptically ectomized from neonate ICR mice of 1˜2 days, washed with PBS solution and incubated with a mixture of enzyme solution (0.2% collagenase and 0.1% dispase) at 37° C. gentle shaker. This procedure was sequentially repeated (10, 10, 10, 20, 20 and 20 mins), and then the calvaria cells having the characteristics of osteoblast mostly released from III-VI digestion groups were collected and washed with the medium (serum-free α-MEM). The washed cells were cultivated in α-MEM medium containing 10% FBS for 2˜3 days. After subculturing, these cells were used for this experiment, and diluted to reach the concentration of 1×10^6 cell/mL for storage at −70° C.
Benzamidine derivatives of the present invention were dissolved in a sterile distilled water or ethanol to make desired concentrations following dilution. The final volume of specimen added to the medium was determined at the ratio of 1:1000.
Bone marrow cells prepared, in the above and osteoblast from calvaria were co-cultured for osteoclast differentiation. Both bone marrow cells (25,000 cells/cm^2) and osteoblast (10,000 cells/cm^2) were plated on a 96 well plate in α-MEM medium containing FBS with specimen, and then cultured with test materials for 7 days. Differentiation factors, such as dexamethasone (10^−7M) and vitamin D3 (10^−8M), were also continuously added to the medium from the first day of cultivation. The medium was changed with fresh media containing a mixture of specimens and differentiation factors every 2˜3 day.
TRAP was used as a marker to measure osteoclast in consideration of its characteristics showing a positive reaction to TRAP staining solution. TRAP staining solution was prepared in a manner that 5 mg of naphtol AS-MS phosphate (sigma N-4875), a substrate and 25 mg of coloring agent (Fast Red Violet LB salt) were dissolved in N,N-dimethylformamide (about 0.5 mL), 0.1N NaHCO3 buffer solution (50 mL) containing 50 mM tartaric acid was added, and the reaction mixture was stored at refrigerator prior to use.
After culturing the cells for 7 days, the medium was removed from the wells, the cells were once washed with PBS solution and fixed to PBS containing 10% formalin for 2˜5 mins. The cells were fixed again in a mixed solution of ethanol and acetone (1/1) for about 1 min, and dried off. The cells were further treated by TRAP staining solution for 15 mins and washed with PBS. The experimental results were measured by counting the number of osteoclasts with 3 or more nuclei showing TRAP-positive reaction under a microscopic examination. Each of tests was confirmed over three times for gaining more reliable data.
As shown in the following table 7, the inhibitory effect of each experimental group on the differentiation of osteoclast versus controls was expressed by inhibitory percentage value.

Compound	inhibition at 1 µM
CCCCCc1nc(-c2ccc(OCCCCCOc3ccc(C(=N)NO)cc3)cc2)c(C(C)C)s1 [Example 28, N-hydroxy-4-(5-[4-(5-isopropyl-2-pentyl-1,3-thiazol-4-yl)phenoxy]pentoxy)-benzamidine]	29.6%
CCCCCc1nc(-c2ccc(OCCCCCOc3ccc(C(=N)NO)cc3)cc2)c(CCCC)s1 [Example 36, N-hydroxy-4-(5-[4-(5-butyl-2-pentyl-1,3-thiazol-4-yl)phenoxy]pentoxy)-benzamidine]	46.4%
CCCN1CCC(c2nc(-c3ccc(OCCCCCOc4ccc(C(=N)NO)cc4)cc3)c(CC3CCCC3)s2)CC1 [Example 68, N-hydroxy-4-(5-[4-(5-cyclopentylmethyl-2-(1-propyl-piperidin-4-yl)-1,3-thiazol-4-yl)phenoxy]pentoxy)-benzamidine]	83%

Same assay, conditions: Mus musculus, Osteoclast, 168 h; 1 m; co-culture of bone marrow cells and osteoblast, 7 days, TRAP-positive osteoclasts versus controls; read-out: % inhibitory activity on osteoclastogenesis

Compound	inhibition at 1 µM
CCCCc1sc(NC(=N)N)nc1-c1ccc(OCCCCCOc2ccc(C(=N)NO)cc2)cc1 [Example 64, N-hydroxy-4-(5-[4-(5-butyl-2-guanidino-1,3-thiazol-4-yl)phenoxy]pentoxy)-benzamidine]	43.7%
N=C(NO)c1ccc(OCCCCCOc2ccc(-c3nc(N)sc3Cc3ccccc3)cc2)cc1 [Example 65, N-hydroxy-4-(5-[4-(2-amino-5-benzyl-1,3-thiazol-4-yl)phenoxy]pentoxy)-benzamidine]	46%
N=C(N)Nc1nc(-c2ccc(OCCCCCOc3ccc(C(=N)NO)cc3)cc2)c(Cc2ccccc2)s1 [Example 66, N-hydroxy-4-(5-[4-(5-benzyl-2-guanidino-1,3-thiazol-4-yl)phenoxy]pentoxy)-benzamidine]	38.5%
Cc1sc(NC(=O)C(C)C)nc1-c1ccc(OCCCCCOc2ccc(C(=N)NO)cc2)cc1 [Example 69, N-hydroxy-4-(5-[4-(2-(isobutyryl)amino-5-methyl-1,3-thiazol-4-yl)phenoxy]pentoxy)-benzamidine]	99.6%

Same assay, conditions: Mus musculus, Osteoclast, 168 h; 1 μm; co-culture of bone marrow cells and osteoblast, 7 days, TRAP-positive osteoclasts versus controls; read-out: % inhibitory activity on osteoclastogenesis

Compound	inhibition at 1 µM
Cc1sc(C(C)C)nc1-c1ccc(OCCCCCOc2ccc(C(=N)NO)cc2)cc1 [Example 1, N-hydroxy-4-(5-[4-(2-isopropyl-5-methyl-1,3-thiazol-4-yl)phenoxy]pentoxy)-benzamidine]	87%
Cc1sc(C(C)C)nc1-c1ccc(OCCCCCOc2ccc(C(=N)N)cc2)cc1 [Example 2, 4-(5-[4-(2-isopropyl-5-methyl-1,3-thiazol-4-yl)phenoxy]pentoxy)-benzamidine]	78.4%
CCc1nc(-c2ccc(OCCCCCOc3ccc(C(=N)NO)cc3)cc2)cs1 [Example 4, N-hydroxy-4-(5-[4-(2-ethyl-1,3-thiazol-4-yl)phenoxy]pentoxy)-benzamidine]	81.1%
CCc1sc(C)nc1-c1ccc(OCCCCCOc2ccc(C(=N)NO)cc2)cc1 [Example 17, N-hydroxy-4-(5-[4-(5-ethyl-2-methyl-1,3-thiazol-4-yl)phenoxy]pentoxy)-benzamidine]	59.1%
CCc1sc(C(C)C)nc1-c1ccc(OCCCCCOc2ccc(C(=N)NO)cc2)cc1 [Example 19, N-hydroxy-4-(5-[4-(5-ethyl-2-isopropyl-1,3-thiazol-4-yl)phenoxy]pentoxy)-benzamidine]	42.6%
CCc1nc(-c2ccc(OCCCCCOc3ccc(C(=N)NO)cc3)cc2)c(C(C)C)s1 [Example 24, N-hydroxy-4-(5-[4-(2-ethyl-5-isopropyl-1,3-thiazol-4-yl)phenoxy]pentoxy)-benzamidine]	57.8%
CC(C)c1nc(-c2ccc(OCCCCCOc3ccc(C(=N)NO)cc3)cc2)c(C(C)C)s1 [Example 25, N-hydroxy-4-(5-[4-(2,5-diisopropyl-1,3-thiazol-4-yl)phenoxy]pentoxy)-benzamidine]	26.5%
CC(C)c1sc(-c2ccccc2)nc1-c1ccc(OCCCCCOc2ccc(C(=N)NO)cc2)cc1 [Example 26, N-hydroxy-4-(5-[4-(5-isopropyl-2-phenyl-1,3-thiazol-4-yl)phenoxy]pentoxy)-benzamidine]	42.9%
CC(C)c1sc(-c2cccnc2)nc1-c1ccc(OCCCCCOc2ccc(C(=N)NO)cc2)cc1 [Example 27, N-hydroxy-4-(5-[4-(5-isopropyl-2-pyridin-3-yl-1,3-thiazol-4-yl)phenoxy]pentoxy)-benzamidine]	56.5%
CCCc1sc(C)nc1-c1ccc(OCCCCCOc2ccc(C(=N)NO)cc2)cc1 [Example 29, N-hydroxy-4-(5-[4-(2-methyl-5-propyl-1,3-thiazol-4-yl)phenoxy]pentoxy)-benzamidine]	96.3%
CCCCc1sc(-c2ccccc2)nc1-c1ccc(OCCCCCOc2ccc(C(=N)NO)cc2)cc1 [Example 33, N-hydroxy-4-(5-[4-(5-butyl-2-phenyl-1,3-thiazol-4-yl)phenoxy]pentoxy)-benzamidine]	49.5%
Cc1nc(-c2ccc(OCCCCCOc3ccc(C(=N)NO)cc3)cc2)c(Cc2ccccc2)s1 [Example 38, N-hydroxy-4-(5-[4-(5-benzyl-2-methyl-1,3-thiazol-4-yl)phenoxy]pentoxy)-benzamidine]	56.8%
Cc1nc(-c2ccc(OCCCCCOc3ccc(C(=N)NO)cc3)cc2)c(CCCl)s1 [Example 42, N-hydroxy-4-(5-[4-(5-(2-chloro-ethyl)-2-methyl-1,3-thiazol-4-yl)phenoxy]pentoxy)-benzamidine]	90.9%
Cc1nc(-c2ccc(OCCCCCOc3ccc(C(=N)NO)cc3)cc2)c(CC(C)C)s1 [Example 44, N-hydroxy-4-(5-[4-(5-isobutyl-2-methyl-1,3-thiazol-4-yl)phenoxy]pentoxy)-benzamidine]	96.6%
Cc1nc(-c2ccc(OCCCCCOc3ccc(C(=N)N)cc3)cc2)cs1 [Example 52, 4-(5-[4-(2-methyl-1,3-thiazol-4-yl)phenoxy]pentoxy)-benzamidine]	0%
CC(C)c1nc(-c2ccc(OCCCCCOc3ccc(C(=N)N)cc3)cc2)cs1 [Example 53, 4-(5-[4-(2-isopropyl-1,3-thiazol-4-yl)phenoxy]pentoxy)-benzamidine]	0%
Cc1nc(-c2ccc(OCCCCCOc3ccc(C(=N)N)cc3)cc2)c(C)s1 [Example 54, 4-(5-[4-(2,5-dimethyl-1,3-thiazol-4-yl)phenoxy]pentoxy)-benzamidine]	94.2%
CCc1sc(C(C)C)nc1-c1ccc(OCCCCCOc2ccc(C(=N)N)cc2)cc1 [Example 55, 4-(5-[4-(5-ethyl-2-isopropyl-1,3-thiazol-4-yl)phenoxy]pentoxy)-benzamidine]	67.8%
CCc1sc(-c2ccccc2)nc1-c1ccc(OCCCCCOc2ccc(C(=N)N)cc2)cc1 [Example 56, 4-(5-[4-(5-ethyl-2-phenyl-1,3-thiazol-4-yl)phenoxy]pentoxy)-benzamidine]	58.7%
CCc1sc(N)nc1-c1ccc(OCCCCCOc2ccc(C(=N)NO)cc2)cc1 [Example 60, N-hydroxy-4-(5-[4-(2-amino-5-ethyl-1,3-thiazol-4-yl)phenoxy]pentoxy)-benzamidine]	28.2%
CC(C)c1sc(N)nc1-c1ccc(OCCCCCOc2ccc(C(=N)NO)cc2)cc1 [Example 61, N-hydroxy-4-(5-[4-(2-amino-5-isopropyl-1,3-thiazol-4-yl)phenoxy]pentoxy)-benzamidine]	0%
CC(C)c1sc(NC(=N)N)nc1-c1ccc(OCCCCCOc2ccc(C(=N)NO)cc2)cc1 [Example 62, N-hydroxy-4-(5-[4-(2-guanidino-5-isopropyl-1,3-thiazol-4-yl)phenoxy]pentoxy)-benzamidine]	19.1%

Source: US8178688B2, “Benzamidine derivatives, process for the preparation thereof and pharmaceutical composition comprising the same” (Dong Wha Pharmaceutical Co., Ltd., priority 2004, dated 2012)
